Holding throughout (experiment): NCI anticancer screen, dose series, 48 h
Test [1] deals with MDA-MB-231 breast.
The test system of test [2] is MALME-3M melanoma.
Test [3] relates to A498 renal.
In test [4] the test system is A549 NSCLC.
In test [5] the test system is OVCAR-5 ovarian.
For test [6], the system named is OVCAR-3 ovarian.
The test system of test [7] is SK-MEL-2 melanoma.
In test [8] the test system is SK-MEL-5 melanoma.
For test [9], the system named is NCI-H226 lung.
Test [10] deals with HCT-116 colon.

Several values for one entry are separate records, joined by “and”; a condition that tells them apart may be missing. Equal entries are not always repeated.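 All cell lines were grown in 96-well plates and treated with compound for 48 hours. Here, GI50 denotes the concentration required for 50% inhibition of growth. TGI: total growth inhibition.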

Turning to `N#Cc1c(N)nc(N2CCOCC2)c(C#N)c1-c1c(Cl)cccc1Cl`, the GI50 in test [1] is 3.57 µM; in [2], 3.72 µM; in test [3] it was 3.75 µM; in [4], 10.3 µM; in [5] it was 6.27 µM; in test [6] it was 2.4 µM. The GI50 was 6.31 µM in [7], 7.27 µM in test [8], 15.2 µM in test [9] and 3.07 µM in test [10]. For the same compound, the TGI in [1] was 15.4 µM; in [2] it was 13.5 µM; in [3], 23.1 µM; in [4], 95.6 µM; in test [5], 35.3 µM; in test [6], 6.37 µM. Moreover, the TGI in test [7] was 93.2 µM; in test [8] it was 21 µM; in [9], 73.8 µM; in test [10] it was 12.2 µM.
As for `COc1ccc2c(c1)nnc1c3cccnc3[nH]c21`, the GI50 was 1.42 µM and 1.56 µM in test [1]; 1.06 µM and 0.926 µM in [2]; 8 µM and 2.48 µM in test [3]; 7.9 µM and 3.53 µM in test [4]; 5.72 µM and 35.4 µM in test [5]; 0.964 µM and 1.17 µM in [6]. The GI50 was 1.96 µM and 3.6 µM in test [7]; 5.85 µM and 4.04 µM in test [8]; 2.62 µM and 7.87 µM in test [9]; 0.209 µM and 0.146 µM in test [10]. The TGI is 11.4 µM and 6.1 µM in test [1]; 4.63 µM and 4.18 µM in [2]; 19.2 µM and 21.3 µM in [3]; 42.5 µM and 15.4 µM in test [4]; 20.2 µM and > 100 µM in [5]; 2.43 µM and 4.09 µM in test [6]. For the same compound, the TGI was 12.6 µM and 18.9 µM in test [8]; 11.1 µM and 65.3 µM in test [9].
As to `COc1cnccc1Nc1nc(-c2nn(Cc3c(F)cc(OCCO)cc3F)c3ccccc23)ncc1OC`, the GI50 in test [1] is 1.53 µM; in test [2], 2.16 µM; in test [3] it was 12.7 µM; in test [4], 2.93 µM; in test [5], 5.13 µM; in test [6], 3.05 µM. The GI50 was 11 µM in test [7], 2.91 µM in [8], 12.4 µM in [9] and 3.64 µM in test [10]. The TGI in test [1] came to 4.96 µM; in test [2] it was 5.88 µM; in test [3] it was 50.2 µM; in test [4], 10.3 µM; in [5] it was 24.5 µM; in test [6] it was 8.51 µM. Further, the TGI turned out to be 27 µM in test [7], 13 µM in [8], 31.9 µM in [9] and 20.2 µM in [10].
With `Cc1c(-c2ccccn2)ccc2ccccc12`, the TGI in test [1], in test [2], in test [3], in test [4], in [5] and in test [6] was greater than 100 µM throughout. Moreover, the TGI in test [8], in [9] and in test [10] was greater than 100 µM in each case.
Regarding `CCOC(=O)/C=C1/SC(=Nc2ccc(C#N)cc2)N(Cc2ccco2)C1=O`, the GI50 in test [1] is 4.29 µM; in [2], 2.45 µM; in test [3], 14.8 µM; in test [4], 10.4 µM; in test [5], 3.36 µM; in test [6] it was 1.82 µM. Also, the GI50 is 7.65 µM in test [7], 6.71 µM in test [8], 2.22 µM in [9] and 2.06 µM in test [10]. Besides, the TGI in test [1] was 23.5 µM; in [2], 9.65 µM; in [3] it was 30 µM; in [4], 26.1 µM; in [5], 16.1 µM; in test [6], 3.52 µM. For the same compound, the TGI worked out at 25.3 µM in [7], 20.4 µM in test [8], 4.76 µM in test [9] and 4.97 µM in test [10].
Consider `CCc1c(C)c2cc(-n3c(-c4ccc(OC)cc4)csc3=N)c(O)c(C)c2oc1=O`, for which the GI50 in test [1] was 1.52 µM; in test [2] it was 1.73 µM; in [3], 1.94 µM; in test [4], 2.7 µM; in test [5], 2.19 µM; in test [6], 1.19 µM. The GI50 in test [7] is 1.66 µM; in [9] it was 2.13 µM; in test [10], 1.23 µM. Further, the TGI in [1] worked out at 6.39 µM; in [2], 6.26 µM; in test [3] it was 8.72 µM; in test [4], 12.3 µM; in test [5], 4.75 µM; in test [6], 3.08 µM. The TGI in test [7] was found to be 5.84 µM; in [9] it was 9.73 µM; in [10], 2.99 µM.
With `COc1cc(C(=O)O[C@H](C(=O)NCCCCNC(=O)[C@@H](OC(=O)c2cc(OC)cc3c(C)cccc23)[C@]2(C)CO2)[C@]2(C)CO2)c2cccc(C)c2c1`, the GI50 was 1.85 µM in [1]; 2.46 µM in [3]; 0.26 µM in test [4]; 0.257 µM in test [5]; 0.207 µM in [6]; 0.0724 µM in [7]. Also, the GI50 in test [8] is 0.0203 µM; in test [9], 0.62 µM. Also, the TGI stood at 5.48 µM in test [1]; 5.16 µM in [3]; 0.699 µM in test [4]; 1.05 µM in [5]; 0.73 µM in test [6]; 0.233 µM in [8]. This compound had a TGI in [9] of 2.07 µM.
Turning to `S=C(SSC(=S)N1CCCCC1)N1CCCCC1`, the GI50 in [1] was 15.2 µM; in [2] it was 16.4 µM; in test [4], 24.1 µM; in test [5], 14.6 µM; in test [6], 11.3 µM; in [7], 25.1 µM. The GI50 in [8] was 4.34 µM; in test [9], 34.6 µM. For the same compound, the TGI in test [1] is 41.2 µM; in test [2], 50.4 µM; in test [4] it was greater than 100 µM; in [5], 27.9 µM; in test [6], 24.2 µM; in test [7] it was 67.8 µM. The TGI was 59.8 µM in [8] and greater than 100 µM in test [9].

These data come from PubChem BioAssay (NCI).
